Laboratory results taken from EP0606463B1, “NEUROMEDIN B RECEPTOR ANTAGONISTS” (The Administrators of The Tulane Educational Fund, priority 1992, dated 1994).
Read-outs that look alike come from different tables or passages of the source. Where a SMILES comes first, the peptide text is derived from it. Bridges are numbered along the chain shown (N, C = ends). [ ]: non-standard residue; d: D form. 2Nal = N[C@@H](Cc1ccc2ccccc2c1)C(=O)O; d2Nal = N[C@H](Cc1ccc2ccccc2c1)C(=O)O

Key:
NMB Receptor = biological target: T1, NMB Receptor (Rattus norvegicus, UniProt P24053); experiment: [3H]inositol phosphates (IP) in NMB-R transfected cells; type: cell-based
T1 construct: a full length NMB-preferring bombesin receptor clone generated from rat esophagus; expressed in transfected cells; host or cells: BALB 3T3 cells
T1 sequence (P24053 1-390): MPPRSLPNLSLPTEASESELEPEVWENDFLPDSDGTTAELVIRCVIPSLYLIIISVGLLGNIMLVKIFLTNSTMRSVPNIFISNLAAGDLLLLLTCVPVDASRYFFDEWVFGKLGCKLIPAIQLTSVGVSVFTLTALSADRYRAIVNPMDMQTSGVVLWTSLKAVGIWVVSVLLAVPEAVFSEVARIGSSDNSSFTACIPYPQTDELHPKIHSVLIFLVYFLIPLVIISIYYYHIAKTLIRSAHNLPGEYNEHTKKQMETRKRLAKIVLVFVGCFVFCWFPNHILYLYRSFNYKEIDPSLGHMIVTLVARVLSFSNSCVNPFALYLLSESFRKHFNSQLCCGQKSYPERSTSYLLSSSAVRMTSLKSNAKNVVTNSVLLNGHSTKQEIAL
Protocol: As described previously [Wada, E., et al. Neuron 6:421 (1991)], BALB 3T3 cells expressing a stably transfected rat NMB receptor (NMB-R transfected cells) were obtained using calcium phosphate precipitation of a full length NMB-preferring bombesin receptor clone generated from rat esophagus and subcloned into a modified version of the pCD2 plasmid. Cells were passaged every 3-4 days at confluence, using 0.1% trypsin in 1 mM EDTA. Rat glioblastoma C-6 tumor cells were maintained similarly and were passaged weekly at confluence. Both cell lines were cultured at 37°C in a 5% CO2 atmosphere. Rat AR 42J pancreatic acinar cells were cultured in Dulbecco's modified Eagle's medium (DMEM) without antibiotics and supplemented with 10% (vol/vol) fetal calf serum. The incubation atmosphere consisted of 10% CO2-90% humidified air at 37°C.
(§1) Total phosphoinositides in C-6 cells and in NMB-R transfected cells were determined as described previously, with minor modifications [Benya, R. V. et al. Mol. Pharmacol. 42:1058 (1992); and Wang, L-H. et al. Biochem. J. 286:641 (1992)]. Cells were grown to confluence in 24-well plates and then loaded with 100 µCi/ml myo-[2-^3H]inositol in Dulbecco's modified essential medium with 2% fetal bovine serum at 37°C for 48 hrs. Cells were washed and incubated in phosphoinositide buffer (standard buffer additionally containing 10 mM LiCl, 20 mM HEPES, 2 mM CaCl2, 2% BSA, and 1.2 mM MgSO4) for 15 min and then for 60 min at 37°C with agonists at various concentrations or with 3 nM NMB (a half-maximal effective concentration) and possible antagonists at different concentrations. Reactions were halted using ice-cold 1% HCl in methanol, and the inositol phosphates (IP) were isolated as described previously [Bologna, M. et al. Cancer 63:1714 (1989); and Endo, T. et al. J. Endocrinol. 131:313 (1991)]. Briefly, after loading of the anion exchange column, free [^3H]glycerophosphorylinositol was removed by washing with 5 mM disodium tetraborate in 60 mM sodium formate. Total [^3H]inositol phosphates were then eluted using 100 mM formic acid in 1.0 M ammonium formate as described previously [Benya, R. V. et al. Mol. Pharmacol. 42:1058 (1992); and Wang, L-H. et al. Biochem. J. 286:641 (1992)].

[1] = biological target: T2, NMB receptors on C-6 cells (Rattus norvegicus, UniProt P24053); experiment: Binding of 125I-[D-Tyr0]NMB to C-6 glioblastoma cells; details: NMB Receptor, Ki by method of Cheng, read-out: Ki(nM) ^123I-NMB Binding
T2 construct: endogenous in cells; host or cells: rat glioblastoma C-6 cells
Protocol: Binding studies using rat glioblastoma C-6 or NMB-R transfected cells were performed as described previously [Benya, R. V. et al. Mol. Pharmacol. 42:1058 (1992); and Wang, L-H. et al. Biochem. J. 286:641 (1992)] by suspending disaggregated cells in binding buffer, which was composed of standing buffer ([…], 7.7 mM KCl, 1.0 mM EGTA, 0.02% soybean trypsin inhibitor) additionally containing 50 mM HEPES, 1 mM MgCl2, 1.5 mM CaCl2, 2.2 mM KH2PO4, 0.015% glutamine, and 0.2% BSA (w\v) (pH 7.4). Incubations contained 75 pM ^125I-[D-Tyr^0]NMB and 15 x 10^6 C-6 cells/ml or 2 x 10^6 NMB-R transfected cells/ml, for 60 min at 22°C. Nonsaturable binding of ^125I-[D-Tyr^0]NMB was te amount of radioactivity associated with C-6 cells or NMB-R transfected cells when the incubation mixture contained […]. Nonsaturable binding was < 15% of total binding in all experiments; all values are reported herein as saturable binding (i.e., total minus nonsaturable binding).

[2] = biological target: T3, GRP receptors on rat pancreatic acini (Rattus norvegicus, UniProt P52500); experiment: Binding of 125I-[Tyr4]bombesin to pancreatic acini; details: read-out: Ki (nM) ^123I[Tyr^4]BnBinding
T3 construct: from tissue; host or cells: dispersed pancreatic acini
Description: Nonsaturable binding was < 10% of total binding in all experiments.

rat NMB receptor = biological target: T4, rat NMB receptor (Rattus norvegicus, UniProt P24053); experiment: Binding of 125I-[D-Tyr0]NMB to NMB-R transfected BALB 3T3 cells
T4 construct: a full length NMB-preferring bombesin receptor clone generated from rat esophagus; expressed in transfected cells; host or cells: BALB 3T3 cells
T4 sequence (P24053 1-390): T1 sequence (P24053 1-390)
Protocol: Cells were passaged every 3-4 days at confluence, using 0.1% trypsin in 1 mM EDTA. Rat glioblastoma C-6 tumor cells were maintained similarly and were passaged weekly at confluence. Both cell lines were cultured at 37°C in a 5% CO2 atmosphere. Rat AR 42J pancreatic acinar cells were cultured in Dulbecco's modified Eagle's medium (DMEM) without antibiotics and supplemented with 10% (vol/vol) fetal calf serum. The incubation atmosphere consisted of 10% CO2-90% humidified air at 37°C.

GRP Receptor = biological target: T5, GRP Receptor (Rattus norvegicus, UniProt P52500); experiment: Amylase release from rat pancreatic acini; type: cell-based
T5 construct: from tissue; host or cells: dispersed pancreatic acini

mu opioid receptors = biological target: T6, mu opioid receptors (Rattus norvegicus, UniProt P33535); experiment: mu opioid membrane assay ([3H]DAGO, rat forebrain membranes); type: binding; details: for inhibition of binding to mu opioid receptors: rat forebrain membranes, concentrations up to 10 µM
T6 construct: rat forebrain (TRH, mu and delta opioid membrane assays); from tissue; host or cells: rat forebrain membranes

[3] = biological target: T7, somatostatin receptors on AR 42J cells (Rattus norvegicus, UniProt P30680); experiment: Somatostatin membrane receptor assay (AR 42J cell membranes); type: binding; details: for inhibition of binding of ^125I-[Tyr^11]SS-14 to somatostatin receptors: AR 42J cells, concentrations up to 10 µM
T7 construct: endogenous in cells; host or cells: rat AR 42J pancreatic acinar cells (membranes)

[4] = biological target: T8, GRP receptors on AR 42J cell membranes (Rattus norvegicus, UniProt P52500); experiment: GRP membrane receptor assay (AR 42J cell membranes); type: binding; details: method of Cheng, unit inferred, read-out: affinity, ^125I-[Tyr^4]Bn
T8 construct: endogenous in cells; host or cells: rat AR 42J pancreatic acinar cells (membranes)

[5] = biological target: T9, NMB receptors on rat olfactory bulb membranes (Rattus norvegicus, UniProt P24053); experiment: NMB membrane receptor assay (rat olfactory bulb membranes); type: binding; details: Rat Olfactory bulb membranes; method of Cheng; unit inferred; read-out: affinity, ^125I-NMB
T9 construct: Membranes were prepared from rat olfactory bulb (NMB membrane receptor assay); from tissue; host or cells: rat olfactory bulb membranes
T9 sequence (P24053 1-390): T1 sequence (P24053 1-390)

[6] = biological target: T10, NMB receptors on C-6 glioblastoma cells (Rattus norvegicus, UniProt P24053); experiment: NMB-stimulated [3H]IP in C-6 glioblastoma cells; type: cell-based; details: C-6 glioblastoma cells; agonist without analog; basal 7.2±1.0
T10 construct: endogenous in cells; host or cells: rat glioblastoma C-6 cells
T10 sequence (P24053 1-390): T1 sequence (P24053 1-390)
Protocol: as §1, with “for 60 min at 37°C with agonists at various concentrations or with 3 nM NMB (a half-maximal effective concentration) and possible antagonists at different concentrations.” left out

[7] = NMB Receptor, Transfected Cells, read-out: IC50 (nM) NMB-stimulated [^3H]IP
[8] = NMB Receptor, Transfected Cells, Ki by method of Cheng, read-out: Ki (nM) ^123I-NMB Binding

T7 sequence (P30680 whole entry): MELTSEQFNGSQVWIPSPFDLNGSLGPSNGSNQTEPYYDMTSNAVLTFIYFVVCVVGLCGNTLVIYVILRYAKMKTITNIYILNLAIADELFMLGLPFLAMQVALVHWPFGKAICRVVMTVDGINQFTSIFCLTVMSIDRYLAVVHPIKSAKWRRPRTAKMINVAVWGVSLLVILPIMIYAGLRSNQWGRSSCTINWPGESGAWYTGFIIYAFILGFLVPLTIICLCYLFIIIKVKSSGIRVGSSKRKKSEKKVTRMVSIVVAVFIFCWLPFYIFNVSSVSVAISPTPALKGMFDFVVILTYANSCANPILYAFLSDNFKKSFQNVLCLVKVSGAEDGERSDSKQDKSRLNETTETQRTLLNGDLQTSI
T6 sequence (P33535 whole entry): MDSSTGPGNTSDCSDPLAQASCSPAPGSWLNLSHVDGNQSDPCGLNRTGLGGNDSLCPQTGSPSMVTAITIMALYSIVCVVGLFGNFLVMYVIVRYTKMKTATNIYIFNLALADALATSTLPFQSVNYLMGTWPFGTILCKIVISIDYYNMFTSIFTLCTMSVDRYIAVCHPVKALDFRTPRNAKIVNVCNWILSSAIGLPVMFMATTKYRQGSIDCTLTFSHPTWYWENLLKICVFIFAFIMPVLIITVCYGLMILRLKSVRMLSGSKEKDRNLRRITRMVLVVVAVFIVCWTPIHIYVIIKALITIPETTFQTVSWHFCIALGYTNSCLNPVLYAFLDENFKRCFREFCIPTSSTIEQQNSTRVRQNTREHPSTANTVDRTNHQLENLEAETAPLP
T5 sequence (P52500 whole entry): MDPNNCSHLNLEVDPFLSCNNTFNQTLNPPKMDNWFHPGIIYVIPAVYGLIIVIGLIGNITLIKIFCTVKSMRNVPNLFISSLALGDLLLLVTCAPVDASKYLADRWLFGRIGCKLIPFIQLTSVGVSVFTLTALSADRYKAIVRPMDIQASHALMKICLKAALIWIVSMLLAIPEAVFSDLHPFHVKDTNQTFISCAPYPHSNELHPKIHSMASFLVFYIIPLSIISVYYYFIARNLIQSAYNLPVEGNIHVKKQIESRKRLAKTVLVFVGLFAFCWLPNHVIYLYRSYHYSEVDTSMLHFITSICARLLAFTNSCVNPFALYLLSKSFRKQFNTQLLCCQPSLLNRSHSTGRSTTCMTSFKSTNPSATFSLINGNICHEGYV
T3 sequence (P52500 whole entry): as above
T8 sequence (P52500 whole entry): as above

NCCCC[C@@H]1NC(=O)[C@@H](Cc2c[nH]c3ccccc23)NC(=O)[C@H](Cc2ccc(O)cc2)NC(=O)[C@@H](NC(=O)[C@H](N)Cc2ccc3ccccc3c2)CSSC[C@@H](C(=O)N[C@@H](Cc2ccc3ccccc3c2)C(N)=O)NC(=O)[C@H](Cc2ccc3ccccc3c2)NC1=O [Analog #3, [Nal^6]-cyclo SS-octa] (H-[d2Nal]CY[dW]K[2Nal]C[2Nal]-NH2; disulfide 2-7)
IC50 (NMB Receptor; [7]): 2880 ± 188 nM
IC50 (NMB Receptor; NMB-R transfected cells, summary of Table 1, read-out: IC50 of NMB-stimulated increases in [^3H]IP): 3000 to 6600 nM
NMB-R Transfected Cells [^3H]IP Alone (10 µ M) (NMB Receptor; analog 10 µM alone, no-additive control 13 ± 3): 11 ± 1 dpm x 10^3
NMB-R Transfected Cells [^3H]IP Plus NMB (3 nM) (NMB Receptor; analog 10 µM plus NMB 3 nM, NMB without analog 186 ± 58): 65 ± 15 dpm x 10^3
Ki [1]: 997 ± 76 nM
Ki [2]: > 10000 nM
Ki (rat NMB receptor; [8]): 697 ± 64 nM
Ki (rat NMB receptor; NMB-R transfected cells, summary of Table 1, read-out: K1): 700 to 800 nM
fold by which cyclo SS-octa was more potent than the analog (rat NMB receptor; inhibition of ^125I-[Tyr^0]NMB binding to NMB-R transfected cells): 4 fold
IC50 (GRP Receptor): > 10000 nM
Rat Pancreatic Acini Amylase Release Alone (10µM) (GRP Receptor; analog 10 µM alone, no-additive control 4 ± 1): 3 ± 1 % total
Rat Pancreatic Acini Amylase Release Plus Bn(0.3 nM) (GRP Receptor; analog 10 µM plus Bn 0.3 nM, Bn without analog 15 ± 1): 15 ± 1 % total

CC(C)[C@@H]1NC(=O)[C@H](CCCCN)NC(=O)[C@@H](Cc2c[nH]c3ccccc23)NC(=O)[C@H](Cc2ccc(O)cc2)NC(=O)[C@@H](NC(=O)[C@H](N)Cc2ccc3ccccc3c2)CSSC[C@@H](C(=O)N[C@H](C(N)=O)[C@@H](C)O)NC1=O [Analog #5, [Thr^8]-cyclo-SS-octa]
IC50 (NMB Receptor; [7]): > 10000 nM
effect on NMB-stimulated increase in [^3H]IP (NMB Receptor; NMB-R transfected cells, 3 nM NMB, peptide 10 µM): no activity
Ki (mu opioid receptors; Rat Forebrain membranes, method of Cheng, unit inferred, read-out: affinity, [^3H]DAGO): 0.002 ± 0.0014 µM
Ki ([3]; AR 42J Cell Membranes, method of Cheng, unit inferred, read-out: affinity, ^125I-[Tyr^11]SS-14): 0.00029 ± 3e-05 µM
Ki [1]: 3790 ± 1080 nM
Ki [2]: > 10000 nM
Ki [4]: 3.9 ± 1.2 µM
Ki (rat NMB receptor; K1, NMB-R transfected cells, summary of Table 1): 14000 to 19000 nM
Ki (rat NMB receptor; [8]): 14800 ± 2650 nM
Ki [5]: 0.8 ± 0.2 µM
IC50 (GRP Receptor): > 10000 nM

CSCC[C@H](NC(=O)[C@H](CC(C)C)NC(=O)[C@H](Cc1c[nH]cn1)NC(=O)CNC(=O)[C@@H](NC(=O)[C@H](C)NC(=O)[C@H](Cc1c[nH]c2ccccc12)NC(=O)[C@H](Cc1c[nH]cn1)NC(=O)[C@H](CC(N)=O)NC(=O)CNC(=O)[C@H](CCCNC(=N)N)NC(=O)[C@@H]1CCCN1C(=O)[C@H](Cc1ccc(O)cc1)NC(=O)[C@H](CCSC)NC(=O)[C@H](CCCCN)NC(=O)[C@@H](NC(=O)[C@H](CC(C)C)NC(=O)[C@@H](NC(=O)[C@@H](NC(=O)CNC(=O)CNC(=O)CNC(=O)[C@H](C)NC(=O)[C@@H]1CCCN1C(=O)[C@H](CC(C)C)NC(=O)[C@@H]1CCCN1C(=O)[C@@H](N)C(C)C)[C@@H](C)O)C(C)C)[C@@H](C)O)C(C)C)C(N)=O [GRP, gastrin-releasing peptide]
inhibition of binding to mu opioid receptors (mu opioid receptors): Neither NMB nor GRP at concentrations up to 10 µ M inhibited binding
inhibition of binding of ^125I-[Tyr^11]SS-14 to somatostatin receptors [3]: Neither NMB nor GRP at concentrations up to 10 µ M inhibited binding

CSCC[C@H](NC(=O)[C@H](Cc1ccccc1)NC(=O)[C@H](Cc1c[nH]cn1)NC(=O)CNC(=O)[C@@H](NC(=O)[C@H](C)NC(=O)[C@H](Cc1c[nH]c2ccccc12)NC(=O)[C@H](CC(C)C)NC(=O)[C@H](CC(N)=O)NC(=O)CN)[C@@H](C)O)C(N)=O [NMB, neuromedin B]
[^3H]IP, NMB (10 nM) Alone [6]: 21.0 ± 1.8 dpm x 10^3
increase in [^3H]IP caused by 3 nM NMB (NMB Receptor; NMB-R transfected cells): 14 fold
inhibition of binding to mu opioid receptors (mu opioid receptors): Neither NMB nor GRP at concentrations up to 10 µ M inhibited binding
inhibition of binding of ^125I-[Tyr^11]SS-14 to somatostatin receptors [3]: Neither NMB nor GRP at concentrations up to 10 µ M inhibited binding
